The target of the assay is T1, αβγXENaC (Xenopus ENaC) (Xenopus laevis, UniProt P51167+P51169+P51171).
T1 sequence (P51167 1-632): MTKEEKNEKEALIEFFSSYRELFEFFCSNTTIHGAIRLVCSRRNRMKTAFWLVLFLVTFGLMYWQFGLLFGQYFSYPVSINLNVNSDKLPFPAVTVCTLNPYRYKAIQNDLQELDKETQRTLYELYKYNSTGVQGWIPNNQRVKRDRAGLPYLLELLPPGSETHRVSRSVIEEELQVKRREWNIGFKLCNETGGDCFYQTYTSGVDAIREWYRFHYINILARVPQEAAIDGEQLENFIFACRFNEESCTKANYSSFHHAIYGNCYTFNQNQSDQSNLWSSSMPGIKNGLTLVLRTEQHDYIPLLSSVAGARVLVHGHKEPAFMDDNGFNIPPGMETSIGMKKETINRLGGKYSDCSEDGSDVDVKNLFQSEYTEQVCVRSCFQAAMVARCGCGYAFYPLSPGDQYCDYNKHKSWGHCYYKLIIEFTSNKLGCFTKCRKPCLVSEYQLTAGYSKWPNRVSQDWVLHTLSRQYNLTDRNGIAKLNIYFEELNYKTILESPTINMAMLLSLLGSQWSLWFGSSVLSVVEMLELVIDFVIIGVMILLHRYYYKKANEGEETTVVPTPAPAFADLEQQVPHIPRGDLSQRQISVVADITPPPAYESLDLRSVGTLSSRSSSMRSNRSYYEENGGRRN
T1 sequence (P51169 1-647): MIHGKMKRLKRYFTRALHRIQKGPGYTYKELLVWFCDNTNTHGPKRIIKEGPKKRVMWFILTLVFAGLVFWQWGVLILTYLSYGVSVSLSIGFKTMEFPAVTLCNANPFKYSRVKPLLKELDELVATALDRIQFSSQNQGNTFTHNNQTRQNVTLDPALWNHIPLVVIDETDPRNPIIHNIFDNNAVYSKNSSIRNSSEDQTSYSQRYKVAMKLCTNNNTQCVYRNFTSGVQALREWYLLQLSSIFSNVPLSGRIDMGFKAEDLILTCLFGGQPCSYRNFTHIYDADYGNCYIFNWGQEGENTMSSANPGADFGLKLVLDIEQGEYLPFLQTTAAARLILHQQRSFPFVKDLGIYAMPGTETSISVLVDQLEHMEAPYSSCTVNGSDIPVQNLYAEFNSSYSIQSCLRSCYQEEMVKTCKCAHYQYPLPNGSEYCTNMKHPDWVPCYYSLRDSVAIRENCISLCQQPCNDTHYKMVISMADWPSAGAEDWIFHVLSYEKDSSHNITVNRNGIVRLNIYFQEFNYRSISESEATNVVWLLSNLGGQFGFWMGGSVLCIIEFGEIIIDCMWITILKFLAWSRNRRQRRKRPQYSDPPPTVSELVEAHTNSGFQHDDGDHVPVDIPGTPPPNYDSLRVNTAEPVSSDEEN
T1 sequence (P51171 1-660): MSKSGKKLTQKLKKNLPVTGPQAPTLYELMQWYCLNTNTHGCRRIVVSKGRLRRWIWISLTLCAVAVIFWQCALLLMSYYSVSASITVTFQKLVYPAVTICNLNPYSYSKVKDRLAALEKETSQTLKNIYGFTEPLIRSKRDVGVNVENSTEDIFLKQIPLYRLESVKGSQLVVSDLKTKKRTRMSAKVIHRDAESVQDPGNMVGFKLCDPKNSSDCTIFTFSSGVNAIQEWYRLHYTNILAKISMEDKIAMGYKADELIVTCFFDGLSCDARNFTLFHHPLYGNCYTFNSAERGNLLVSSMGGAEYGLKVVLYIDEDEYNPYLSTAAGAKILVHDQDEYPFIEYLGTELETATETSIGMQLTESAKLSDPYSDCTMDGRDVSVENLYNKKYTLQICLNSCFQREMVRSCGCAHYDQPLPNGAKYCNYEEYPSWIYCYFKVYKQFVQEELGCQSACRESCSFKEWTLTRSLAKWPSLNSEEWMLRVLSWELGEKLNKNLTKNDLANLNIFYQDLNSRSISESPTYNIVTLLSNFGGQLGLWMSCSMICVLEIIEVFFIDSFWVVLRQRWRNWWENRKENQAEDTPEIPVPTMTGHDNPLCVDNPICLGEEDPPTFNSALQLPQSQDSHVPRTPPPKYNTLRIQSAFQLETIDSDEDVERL
Description: two-electrode voltage clamp of Na+ current in oocytes. It is filed as cell-based.

Structures are written as SMILES.

`N=C(N)NC(=O)c1nc(Cl)c(N)nc1N` [amiloride]: the Ki (commonly the dissociation constant of the complex between target and ligand, obtained from inhibition or displacement) amounted to 550 ± 30 nM.

(Values after PMC1887769 (The Journal of General Physiology, 1998).)
